Laboratory results reported in patent US20080292760A1, “Semi-Solid Food Products and Methods For Their Production, Based on Inhibiting Amylase Starch Breakdown” (WAGENINGEN CENTRE FOR FOOD SCIENCES, priority 2004, published 2008).

Target: T1, salivary amylase (Homo sapiens, UniProt P0DUB6)
T1 construct: from tissue; host or cells: saliva in the mouths of the human panelists (in vivo)
T1 sequence (P0DUB6 16-511): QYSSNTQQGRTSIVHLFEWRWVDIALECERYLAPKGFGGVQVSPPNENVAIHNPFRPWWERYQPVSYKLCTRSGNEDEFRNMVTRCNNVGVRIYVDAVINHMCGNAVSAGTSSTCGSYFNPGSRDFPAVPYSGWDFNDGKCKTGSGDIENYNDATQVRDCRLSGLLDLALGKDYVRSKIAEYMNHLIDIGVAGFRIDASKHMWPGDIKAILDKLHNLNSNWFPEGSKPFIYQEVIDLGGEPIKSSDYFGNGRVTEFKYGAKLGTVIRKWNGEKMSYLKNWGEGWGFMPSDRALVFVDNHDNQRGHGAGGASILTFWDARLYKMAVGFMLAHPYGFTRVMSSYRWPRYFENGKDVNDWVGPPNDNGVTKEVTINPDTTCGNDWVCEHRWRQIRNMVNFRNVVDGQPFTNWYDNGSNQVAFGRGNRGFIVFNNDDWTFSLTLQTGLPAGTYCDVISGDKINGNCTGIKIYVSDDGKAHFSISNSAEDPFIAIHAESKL
Test: acarbose study: sensory rating of vanilla custard desserts with added acarbose
Format: in vivo
Conditions: Creamex custard
Protocol: The role of salivary amylase in modifying texture sensations was evaluated in the following examples, in which the level of amylase activity was varied within subjects, rather than between subjects. Alpha-amylase was added in varying concentrations to starch and CMC (non-starch)-based vanilla custard desserts. Additionally, amylase activity was inhibited to various degrees by adding the pharmaceutical amylase inhibitor Acarbose (CAS nr. 56180-94-0) in various concentrations to the same test foods.
Eighteen subjects, 11 females and 7 males aged between 18 and 34 yrs, participated the ‘amylase study’ and 7 different subjects, all females aged between 39 and 56 yrs, participated in the ‘acarbose study’. The subjects participating in the latter study had been informed about acarbose and its possibly side effects if swallowed. To avoid these side effects, subjects expectorated rather than swallowed the acarbose samples. All subjects signed consent forms expressing their willingness to participate in the studies, and all had previously been screened for olfactory and taste disorders and had received extensive training in the description of sensory mouthfeel and afterfeel attributes for semi-solid foods. Testing took place at the sensory facilities of TNO-Nutrition and Food Research in Zeist, The Netherlands. […]

increase of creamy mouthfeel: up to 59%
SMILES: C[C@H]1O[C@H](O[C@H]2[C@H](O)[C@@H](O)[C@@H](O[C@H]3[C@H](O)[C@@H](O)C(O)O[C@@H]3CO)O[C@@H]2CO)[C@H](O)[C@@H](O)[C@@H]1N[C@H]1C=C(CO)[C@@H](O)[C@H](O)[C@H]1O (stereo partly shown) [Acarbose]
